Laboratory results as given in article PMC3632601, “Polyacetylenes from Notopterygium incisum–New Selective Partial Agonists of Peroxisome Proliferator-Activated Receptor-Gamma” (PLoS ONE, 2013).
“And” between values parts separate entries of the source, which are not always exact repeats. Equal entries are not always repeated. “Also recorded” adds a separate entry of the source.

How the values were obtained:
3T3-L1 preadipocytes = assay: Adipogenicity: 3T3-L1 preadipocyte differentiation, Oil Red O staining; format: cell-based; conditions: 10 µM, with 1 µg/ml insulin, compared with pioglitazone 10 µM; listed as falcarindiol
Procedure: 3T3-L1 preadipocytes (ATCC, USA) were propagated in DMEM supplemented with 10% calf serum. […]. The medium was renewed every two days until day 8. For an estimate of lipid accumulation, Oil Red O staining was performed. For this, cells were fixed in 10% formaldehyde for 1 h and stained with Oil Red O for 10 min. After washing off excessive dye, bound dye was solubilized with 100% isopropanol and photometrically quantified at 550 nm. For better appreciation of the adipogenic potential of the investigated PPARγ agonists, a subset of preadipocytes was treated according to a common standard differentiation protocol (2 days in DMEM/10% FBS/500 µM IBMX/500 nM dexamethasone and 1 µg/mL insulin (MDI), followed by 2 days in DMEM/10% FBS/1 µg/ml insulin and 6 days in DMEM/10% FBS).
Figure 4 Assessment of adipogenicity and glucose uptake-enhancing properties of falcarindiol. […]; containing 10% FBS, 500 µM IBMX, 500 nM dexamethasone, and 1 µg/ml insulin) as a positive control. For an estimate of accumulated lipids, and thus for the adipogenic potential of the test compounds, Oil Red O staining and photometric quantification at 550 nm was performed. […] (B) 3T3-L1 mature adipocytes were incubated with falcarindiol (10 µM) or solvent vehicle (0.1% DMSO) for 48 h and 2-deoxy-D-(1H^3)-glucose cellular uptake was determined for 10 min in the presence or absence (basal uptake) of insulin (500 pM). […]

human PPARα = target: T1, human PPARα (Homo sapiens, UniProt Q07869); assay: PPARα luciferase reporter gene transactivation in transfected HEK-293 cells; format: cell-based; conditions: HEK-293, tk-PPREx3-luc reporter, 18 h, 0.1–30 µM; n.d. = not detected up to 30 µM; read-out: PPARα activation EC50
T1 construct: expressed in transfected cells; host or cells: HEK-293
T1 sequence (Q07869 1-468): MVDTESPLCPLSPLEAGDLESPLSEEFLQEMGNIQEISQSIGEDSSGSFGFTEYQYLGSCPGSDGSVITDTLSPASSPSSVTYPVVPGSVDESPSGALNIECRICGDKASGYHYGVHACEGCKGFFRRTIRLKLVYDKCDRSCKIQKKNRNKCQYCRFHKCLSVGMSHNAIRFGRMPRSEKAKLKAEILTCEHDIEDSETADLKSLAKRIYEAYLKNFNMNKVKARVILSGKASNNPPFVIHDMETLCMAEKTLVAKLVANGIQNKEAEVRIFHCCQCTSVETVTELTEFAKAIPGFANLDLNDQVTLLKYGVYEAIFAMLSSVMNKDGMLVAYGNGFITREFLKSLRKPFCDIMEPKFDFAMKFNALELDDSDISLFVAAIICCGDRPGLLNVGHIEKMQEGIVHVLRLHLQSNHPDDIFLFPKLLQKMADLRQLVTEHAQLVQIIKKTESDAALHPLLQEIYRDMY
Procedure: (§1) HEK-293 cells (ATCC, USA) were cultured in DMEM with phenol red, supplemented with 100 U/ml benzylpenicillin, 100 µg/ml streptomycin, 2 mM L-glutamine, and 10% FBS. Cells were maintained in 75 cm^2 flasks containing 10 ml medium at 37°C and 5% CO2. The cells were seeded in 10 cm dishes at a density of 6 × 10^6 cells/dish, incubated for 18 h, and transfected by the calcium phosphate precipitation method with 4 µg of the reporter plasmid (tk-PPREx3-luc), 4 µg from the respective PPAR subtype expression plasmid, and 2 µg green fluorescent protein plasmid (pEGFP-N1, Clontech, Mountain View, CA) as internal control. After 6 h, the transfected cells were harvested and re-seeded (5 × 10^4 cells/well) in 96-well plates containing DMEM without phenol red, supplemented with 100 U/ml benzylpenicillin, 100 µg/ml streptomycin, 2 mM L-glutamine, and 5% charcoal-stripped FBS. The cells were further treated with the indicated extracts or compounds or the solvent vehicle and incubated for 18 h. The medium was then discarded and the cells were lysed with a reporter lysis buffer (E3971, Promega, Madison, USA). Luciferase activity of the cell lysates was evaluated using a GeniosPro plate reader (Tecan, Grödig, Austria). The luminescence signals obtained from the luciferase activity measurements were normalized to the EGFP-derived fluorescence, to account for differences in the transfection efficiency or cell number.

3T3-L1 adipocytes = assay: 2-Deoxy-D-(1H^3)-glucose uptake in differentiated 3T3-L1 adipocytes; format: cell-based; conditions: 10 µM for 48 h, insulin 500 pM, vs vehicle, listed as falcarindiol
Procedure: Confluent 3T3-L1 preadipocytes (ATCC, USA) were differentiated (day 0) into mature adipocytes for 10 days (2 days in DMEM supplemented with 10% FBS, […], 1 µg/ml insulin and 500 nM dexamethasone followed by 2 days in DMEM/10% FBS/1 µg/ml insulin and 6 days in DMEM/10% FBS), and incubated with the test compounds (10 µM) or 0.1% DMSO as vehicle control for 48 h at 37°C. Before the experiment, cells were incubated for 4 h in DMEM/0.1% BSA followed by 1 h in KRH/BSA buffer (50 mM HEPES, 136 mM NaCl, 23.5 mM KCl, 1.25 mM MgSO4, 1.25 mM CaCl2 and 0.1% BSA). […] The glucose uptake rate was determined by liquid scintillation counting (Perkin Elmer, Waltham, MA, USA) of cell lysates (20 mM HEPES, 1% Igepal CA-630), and normalized to protein content assessed by the Bradford protein assay.
Figure 4 Assessment of adipogenicity and glucose uptake-enhancing properties of falcarindiol. […] For an estimate of accumulated lipids, and thus for the adipogenic potential of the test compounds, Oil Red O staining and photometric quantification at 550 nm was performed. […] (B) 3T3-L1 mature adipocytes were incubated with falcarindiol (10 µM) or solvent vehicle (0.1% DMSO) for 48 h and 2-deoxy-D-(1H^3)-glucose cellular uptake was determined for 10 min in the presence or absence (basal uptake) of insulin (500 pM). […]

human PPARβ/δ = target: T2, human PPARβ/δ (Homo sapiens, UniProt Q03181); assay: PPARβ/δ luciferase reporter gene transactivation in transfected HEK-293 cells; format: cell-based; conditions: HEK-293, tk-PPREx3-luc reporter, 18 h, 0.1–30 µM; n.d. = not detected up to 30 µM; read-out: PPARβ/δ activation EC50
T2 construct: expressed in transfected cells; host or cells: HEK-293
T2 sequence (Q03181 1-441): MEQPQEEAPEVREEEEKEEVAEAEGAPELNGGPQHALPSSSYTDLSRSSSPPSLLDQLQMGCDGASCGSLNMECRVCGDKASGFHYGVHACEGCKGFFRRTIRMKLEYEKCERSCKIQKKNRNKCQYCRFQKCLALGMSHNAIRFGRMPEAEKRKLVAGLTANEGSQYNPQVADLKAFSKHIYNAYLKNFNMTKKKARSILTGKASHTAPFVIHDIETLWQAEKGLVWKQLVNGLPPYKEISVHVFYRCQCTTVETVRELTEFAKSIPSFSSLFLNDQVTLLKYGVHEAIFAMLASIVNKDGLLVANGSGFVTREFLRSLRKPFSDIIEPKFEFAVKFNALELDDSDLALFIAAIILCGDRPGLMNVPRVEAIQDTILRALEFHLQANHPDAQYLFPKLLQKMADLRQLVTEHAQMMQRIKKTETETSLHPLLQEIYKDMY
Procedure: as §1

[1] = target: T3, human PPARγ ligand-binding domain (LBD) (Homo sapiens, UniProt P37231); assay: LanthaScreen TR-FRET PPARγ competitive binding assay; conditions: purified human PPARγ-LBD, 6 h incubation, Cheng-Prusoff from IC50
T3 construct: purchased Invitrogen
T3 sequence (P37231 238-503 limits assumed): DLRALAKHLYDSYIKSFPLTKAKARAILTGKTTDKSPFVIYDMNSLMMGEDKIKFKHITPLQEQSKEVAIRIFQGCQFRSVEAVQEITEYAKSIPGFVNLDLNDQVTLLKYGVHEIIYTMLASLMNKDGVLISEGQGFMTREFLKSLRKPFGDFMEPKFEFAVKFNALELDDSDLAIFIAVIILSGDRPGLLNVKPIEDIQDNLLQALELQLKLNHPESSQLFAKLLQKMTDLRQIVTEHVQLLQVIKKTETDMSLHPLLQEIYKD
Procedure: The LanthaScreen® time-resolved fluorescence resonance energy transfer (TR-FRET) PPARγ competitive binding assay (Invitrogen, Lofer, Austria) was performed according to the manufacturer’s protocol. The test compounds dissolved in DMSO or the blank solvent vehicle (DMSO) were incubated together with the human PPARγ ligand-binding domain (LBD) tagged with GST, a terbium-labeled anti-GST antibody, and a fluorescently labeled PPAR ligand (Fluormone Pan-PPAR Green, Invitrogen). In this assay, the fluorescently labeled ligand is binding to the human PPARγ LBD, which brings it in close spatial proximity to the terbium-labeled anti-GST antibody. Excitation of the terbium at 340 nm results in energy transfer (FRET) and partial excitation of the fluorescently labeled PPAR ligand, followed by emission at 520 nm. Test-compounds binding to the human PPARγ LBD are competing with the fluorescently labeled ligand and displacing it, resulting in a decrease of the FRET signal. […] All measurements were performed with a GeniosPro plate reader (Tecan, Grödig, Austria).
One-way analysis of variance (ANOVA) with Bonferroni post hoc test, or two-tailed paired t-test was used to determine statistical significance. […]

human PPARγ = target: T4, human PPARγ (Homo sapiens, UniProt P37231); assay: PPARγ luciferase reporter gene transactivation in transfected HEK-293 cells; conditions: for PPARγ activation maximal fold activation: HEK-293, 18 h, fold induction above vehicle control (DMSO 0.1%)
T4 sequence (P37231 1-477 isoform P37231-2): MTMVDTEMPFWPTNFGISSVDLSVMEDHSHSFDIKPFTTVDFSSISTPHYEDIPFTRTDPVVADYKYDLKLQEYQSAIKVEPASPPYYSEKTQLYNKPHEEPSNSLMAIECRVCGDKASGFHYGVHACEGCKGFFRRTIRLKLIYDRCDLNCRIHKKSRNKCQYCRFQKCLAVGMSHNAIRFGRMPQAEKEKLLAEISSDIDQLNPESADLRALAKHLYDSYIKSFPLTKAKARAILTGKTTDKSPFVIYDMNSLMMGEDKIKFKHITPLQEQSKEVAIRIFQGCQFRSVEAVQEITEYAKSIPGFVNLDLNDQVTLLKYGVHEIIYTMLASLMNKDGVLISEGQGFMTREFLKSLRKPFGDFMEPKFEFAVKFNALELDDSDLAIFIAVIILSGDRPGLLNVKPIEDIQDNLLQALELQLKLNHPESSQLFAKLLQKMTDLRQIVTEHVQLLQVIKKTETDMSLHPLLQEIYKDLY
Procedure: HEK-293 cells (ATCC, USA) were cultured in DMEM with phenol red, supplemented with 100 U/ml benzylpenicillin, 100 µg/ml streptomycin, 2 mM L-glutamine, and 10% FBS. Cells were maintained in 75 cm^2 flasks containing 10 ml medium at 37°C and 5% CO2. The cells were seeded in 10 cm dishes at a density of 6 × 10^6 cells/dish, incubated for 18 h, and transfected by the calcium phosphate precipitation method [31] with 4 µg of the reporter plasmid (tk-PPREx3-luc), 4 µg from the respective PPAR subtype expression plasmid, and 2 µg green fluorescent protein plasmid (pEGFP-N1, Clontech, Mountain View, CA) as internal control. After 6 h, the transfected cells were harvested and re-seeded (5 × 10^4 cells/well) in 96-well plates containing DMEM without phenol red, supplemented with 100 U/ml benzylpenicillin, 100 µg/ml streptomycin, 2 mM L-glutamine, and 5% charcoal-stripped FBS. The cells were further treated with the indicated extracts or compounds or the solvent vehicle and incubated for 18 h. The medium was then discarded and the cells were lysed with a reporter lysis buffer (E3971, Promega, Madison, USA). Luciferase activity of the cell lysates was evaluated using a GeniosPro plate reader (Tecan, Grödig, Austria). The luminescence signals obtained from the luciferase activity measurements were normalized to the EGFP-derived fluorescence, to account for differences in the transfection efficiency or cell number.
(A) HEK-293 cells were transiently co-transfected with a plasmid encoding full-length human PPARγ, a reporter plasmid containing PPRE coupled to a luciferase reporter and an EGFP plasmid as internal control. […] The data shown are means ± SD of three independent experiments each performed in quadruplet. ***p<0.001, *p<0.05 (compared to the solvent vehicle group; ANOVA/Bonferroni).
The data points shown are means ± SEM of three independent experiments each performed in quadruplet. (B) Cells were transfected and treated as indicated above. […] (C) The cells were prepared as indicated above and treated for 18 h with different concentrations of falcarindiol, always in the presence of 1 µM pioglitazone. The data shown are means ± SD of three independent experiments each performed in quadruplet.

| SMILES | 3T3-L1 adipocyte differentiation (lipid accumulation, Oil Red O) (3T3-L1 preadipocytes) | EC50 (human PPARα) [µM] | insulin-mediated glucose uptake (3T3-L1 adipocytes) | EC50 (human PPARβ/δ) [µM] | Ki [1] | EC50 (human PPARγ) [µM] | PPARγ activation maximal fold activation (human PPARγ) [fold] | share of the stimulating effect of pioglitazone blocked by co-treatment (human PPARγ; co-treatment with 1 µM pioglitazone, 18 h, maximal block) | stimulating effect upon co-treatment with PPARγ antagonist T0070907 (human PPARγ; falcarindiol 10 µM, T0070907 1 µM) |
| --- | --- | --- | --- | --- | --- | --- | --- | --- | --- |
| C=C[C@@H](O)C#CC#C[C@@H](O)/C=C\CCCCCCC [compound 2, 3R,8S,9Z-heptadeca-1,9-diene-4,6-diyne-3,8-diol] | induced 3T3-L1 preadipocyte differentiation; also recorded: induced the differentiation to adipocytes as expected, although to a smaller extent than pioglitazone | > 30 | significantly enhanced | > 30 | 3.07 µM and 3.1 µM | 3.29 | 3.26 | 70–80% | blocked |
| C=C[C@@H](O)C#CC#C[C@@H](O)C1OC1CCCCCCC (stereo partly drawn) [compound 3, 1R,6R-1-(3-heptyloxiran-2-yl)octa-7-ene-2,4-diyne-1,6-diol] | – | > 30 | – | > 30 | – | 2.03 | 1.88 | – | – |
| CCCCCCC/C=C\CC#CC#CCCCO [compound 5, 9Z-heptadecene-4,6-diyne-1-ol] | – | > 30 | – | > 30 | – | 11.3 | 1.92 | – | – |
| C=C[C@@H](O)C#CC#C[C@H](/C=C\CCCCCCC)OC(C)=O [compound 1, 3R,8S,9Z-3-hydroxyheptadeca-1,9-diene-4,6-diyne-8-yl acetate] | – | > 30 | – | > 30 | – | 3.59 | 2.36 | – | – |
| C=C[C@@H](O)/C=C/C#C[C@@H](O)/C=C\CCCCCCC [compound 4, 3R,4E,8S,9Z-heptadeca-1,4,9-triene-6-yne-3,8-diol] | – | > 30 | – | > 30 | – | 4.58 | 2.29 | – | – |
| CCCCCCC/C=C\CC#CC#C/C=C\CO [compound 6, 2Z,9Z-heptadecadiene-4,6-diyne-1-ol] | – | > 30 | – | > 30 | – | 4.18 | 1.73 | – | – |
